Reference: US20230265151A1, “GIP/GLP1 CO-AGONIST COMPOUNDS” (priority 2020, published 2023)
Read-outs that look alike come from different tables or passages of the source.

Experiments:
Assay type in all cases: cell-based
hGIPR = biological target: T1, hGIPR (Homo sapiens, UniProt P48546); assay: Functional cAMP formation (HTRF) in HEK-293 clonal cells expressing hGIPR, 0.1% bovine casein, without or with 1.0% human serum albumin; settings: for EC50: geometric mean
T1 construct: expressed in transfected cells
T1 sequence (P48546 22-466): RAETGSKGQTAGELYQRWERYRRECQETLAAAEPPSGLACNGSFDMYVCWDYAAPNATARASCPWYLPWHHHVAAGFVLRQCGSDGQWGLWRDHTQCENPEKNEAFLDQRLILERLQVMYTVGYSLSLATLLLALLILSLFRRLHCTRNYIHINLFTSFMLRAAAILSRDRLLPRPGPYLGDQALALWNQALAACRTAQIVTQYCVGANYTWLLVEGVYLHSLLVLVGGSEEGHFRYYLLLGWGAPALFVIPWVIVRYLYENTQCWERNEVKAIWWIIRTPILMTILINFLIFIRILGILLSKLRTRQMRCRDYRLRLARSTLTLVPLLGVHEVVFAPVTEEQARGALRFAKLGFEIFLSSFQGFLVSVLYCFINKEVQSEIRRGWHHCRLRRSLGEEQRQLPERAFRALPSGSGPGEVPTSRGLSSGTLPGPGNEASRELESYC
Outline: (§1)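 Cells were stimulated with peptide for 30 min at 37° C, then lysed in buffer carrying cAMP-d2 and anti-cAMP Eu3+-cryptate for a competitive HTRF read after at least 60 min at room temperature. The 665/620 nm ratio was converted to nM cAMP against a standard curve.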

hGCGR = biological target: T2, hGCGR (Homo sapiens, UniProt P47871); assay: Functional cAMP formation (HTRF) in HEK-293 clonal cells expressing hGCGR, 0.1% bovine casein, without or with 1.0% human serum albumin
T2 construct: expressed in transfected cells
T2 sequence (P47871 26-477): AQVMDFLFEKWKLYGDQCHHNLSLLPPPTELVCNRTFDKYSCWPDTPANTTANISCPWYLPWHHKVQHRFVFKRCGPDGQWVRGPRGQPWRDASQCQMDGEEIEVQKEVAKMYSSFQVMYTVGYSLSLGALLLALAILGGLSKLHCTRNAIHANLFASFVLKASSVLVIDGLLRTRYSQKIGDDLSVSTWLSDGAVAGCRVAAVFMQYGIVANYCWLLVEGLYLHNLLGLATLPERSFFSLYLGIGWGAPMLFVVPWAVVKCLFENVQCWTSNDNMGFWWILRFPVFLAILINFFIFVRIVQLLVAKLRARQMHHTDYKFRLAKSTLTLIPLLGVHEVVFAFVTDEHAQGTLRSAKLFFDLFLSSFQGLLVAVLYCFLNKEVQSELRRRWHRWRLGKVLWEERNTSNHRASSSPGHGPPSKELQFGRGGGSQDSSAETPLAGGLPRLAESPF
Outline: as §1

hGLP-1R = hGLP-1R (Homo sapiens, UniProt P43220); assay: Functional cAMP formation (HTRF) in HEK-293 clonal cells expressing hGLP-1R, 0.1% bovine casein, without or with 1.0% human serum albumin; design: expressed in transfected cells; settings: for Emax: percent of maximal response to GLP-1(7-36)NH2; for EC50: cAMP, 0.1% bovine casein (no human serum albumin), geometric mean
Sequence of hGLP-1R (P43220 24-463): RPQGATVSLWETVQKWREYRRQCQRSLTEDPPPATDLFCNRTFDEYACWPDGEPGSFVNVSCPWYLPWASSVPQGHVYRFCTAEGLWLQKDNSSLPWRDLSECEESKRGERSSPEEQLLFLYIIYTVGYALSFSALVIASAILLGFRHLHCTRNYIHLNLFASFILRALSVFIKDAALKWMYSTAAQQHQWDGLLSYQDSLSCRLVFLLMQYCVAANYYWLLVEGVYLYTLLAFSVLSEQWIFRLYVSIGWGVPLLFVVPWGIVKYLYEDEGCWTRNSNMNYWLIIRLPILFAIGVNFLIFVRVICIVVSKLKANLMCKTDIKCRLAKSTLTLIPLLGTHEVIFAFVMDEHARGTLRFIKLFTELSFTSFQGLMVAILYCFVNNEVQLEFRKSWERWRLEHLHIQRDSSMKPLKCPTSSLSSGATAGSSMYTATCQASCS
Outline: as §1

[1] = hGIPR EC50, nM (SEM, n), cAMP, 37° C., 0.1% bovine casein (no human serum albumin)
[2] = hGCGR EC50, nM (SEM, n), cAMP, 37° C., 0.1% bovine casein (no human serum albumin), geometric mean
[3] = hGLP-1R EC50, nM (SEM, n), 37° C.
[4] = HEK293, 0.1% bovine casein and 1.0% human serum albumin, 37° C., percent of maximal response to GIP(1-42)NH2, read-out: hGIPR Emax, % ± SEM
[5] = cAMP, incubated at 37° C., 0.1% bovine casein (no human serum albumin), read-out: hGIPR EC50, nM (SEM, n)
[6] = 0.1% bovine casein and 1.0% human serum albumin, 37° C., geometric mean, read-out: hGCGR EC50, nM (SEM, n)
[7] = cAMP, incubated at 37° C., 0.1% bovine casein (no human serum albumin), geometric mean, read-out: hGCGR EC50, nM (SEM, n)
[8] = HEK293, 0.1% bovine casein and 1.0% human serum albumin, 37° C., read-out: hGLP-1R Emax, % ± SEM
[9] = incubated at 37° C., read-out: hGLP-1R EC50, nM (SEM, n)

| SMILES | Emax (hGIPR; HEK293, read-out: hGIPR Emax, % ± SEM, cAMP, 37° C., 0.1% bovine casein and 1.0% human serum albumin, percent of maximal response to GIP(1-42)NH2) | EC50 (hGIPR; [1]) | EC50 (hGCGR; [2]) | EC50 (hGCGR; hGCGR EC50, nM (SEM, n), cAMP, 37° C., 0.1% bovine casein and 1.0% human serum albumin, geometric mean (SEM, n)) | Emax (hGLP-1R; HEK293, read-out: hGLP-1R Emax, % ± SEM, cAMP, 37° C., 0.1% bovine casein and 1.0% human serum albumin) | Emax (hGLP-1R; HEK293, read-out: hGLP-1R Emax, % ± SEM, cAMP, 37° C., 0.1% bovine casein, arithmetic mean) | EC50 (hGLP-1R; [3]) | EC50 (hGIPR; 0.1% bovine casein and 1.0% human serum albumin, 37° C., read-out: hGIPR EC50, nM (SEM, n)) | Emax (hGIPR; [4]) | EC50 (hGIPR; [5]) | EC50 (hGCGR; [6]) | EC50 (hGCGR; [7]) | Emax (hGLP-1R; [8]) | EC50 (hGLP-1R; [9]) | Emax (hGIPR; HEK293, percent of maximal response to GIP(1-42)NH2, 37° C., 0.1% bovine casein, arithmetic mean, read-out: hGIPR Emax, % ± SEM) | Emax (hGIPR; HEK293, read-out: hGIPR Emax, % ± SEM, 0.1% bovine casein and 1.0% human serum albumin, 37° C., percent of maximal response to GIP(1-42)NH2) | Emax (hGIPR; HEK293, read-out: hGIPR Emax, % ± SEM, cAMP, 37° C., 0.1% bovine casein, percent of maximal response to GIP(1-42)NH2, arithmetic mean) | EC50 (hGIPR; hGIPR EC50, nM (SEM, n), 0.1% bovine casein and 1.0% human serum albumin, 37° C.) | EC50 (hGCGR; hGCGR EC50, nM (SEM, n), 0.1% bovine casein and 1.0% human serum albumin, 37° C., geometric mean) | Emax (hGLP-1R; HEK293, read-out: hGLP-1R Emax, % ± SEM, 0.1% bovine casein and 1.0% human serum albumin, 37° C.) |
| --- | --- | --- | --- | --- | --- | --- | --- | --- | --- | --- | --- | --- | --- | --- | --- | --- | --- | --- | --- | --- |
| CC[C@H](C)[C@H](NC(=O)[C@H](CC(C)C)NC(=O)[C@](C)(Cc1ccc(O)cc1)NC(=O)[C@@H](CCC(=O)O)NC(=O)[C@@H](NC(=O)[C@H](Cc1ccccc1)NC(=O)[C@H](CCC(=O)O)NC(=O)C(C)(C)NC(=O)[C@H](CCC(N)=O)NC(=O)[C@H](C)NC(=O)[C@H](CCCCNC(=O)COCCOCCNC(=O)COCCOCCNC(=O)CC[C@H](NC(=O)CCCCCCCCCOc1ccc(C(=O)O)cc1)C(=O)O)NC(=O)[C@H](CCCN)NC(=O)[C@H](CC(=O)O)NC(=O)[C@H](CC(C)C)NC(=O)[C@](C)(CC(C)C)NC(=O)[C@@H](NC(=O)C(C)(C)NC(=O)[C@@H](NC(=O)[C@H](CC(=O)O)NC(=O)[C@H](CO)NC(=O)[C@@H](NC(=O)[C@](C)(Cc1ccccc1F)NC(=O)[C@@H](NC(=O)CNC(=O)[C@H](CCC(=O)O)NC(=O)C(C)(C)NC(=O)[C@@H](N)Cc1ccc(O)cc1)[C@@H](C)O)[C@@H](C)O)C(C)C)[C@@H](C)CC)[C@@H](C)CC)C(=O)N[C@@H](CCCCNC(=O)COCCOCCNC(=O)COCCOCCNC(=O)CC[C@H](NC(=O)CCCCCCCCCOc1ccc(C(=O)O)cc1)C(=O)O)C(=O)NCC(=O)NCC(=O)N1CCC[C@H]1C(=O)N[C@@H](CO)C(=O)N[C@@H](CO)C(=O)NCC(=O)N[C@@H](C)C(=O)N1CCC[C@H]1C(=O)N1CCC[C@H]1C(=O)N1CCC[C@H]1C(=O)N[C@@H](CO)C(N)=O [Example 326] | 88.7% | 0.0338 nM | > 9950 nM | > 9950 nM | 96.1% | 94.4% | 0.186 nM |  |  |  |  |  |  |  |  |  |  |  |  |  |
| CC[C@H](C)[C@H](NC(=O)[C@H](CC(C)C)NC(=O)[C@](C)(Cc1ccc(O)cc1)NC(=O)[C@@H](CCC(=O)O)NC(=O)[C@@H](NC(=O)[C@H](Cc1ccccc1)NC(=O)[C@H](CCC(=O)O)NC(=O)C(C)(C)NC(=O)[C@H](CCC(N)=O)NC(=O)[C@H](C)NC(=O)[C@H](CCCCNC(=O)COCCOCCNC(=O)COCCOCCNC(=O)CC[C@H](NC(=O)CCCCCCCCCCCCC(=O)O)C(=O)O)NC(=O)[C@H](CCCN)NC(=O)[C@H](CC(=O)O)NC(=O)[C@H](CC(C)C)NC(=O)[C@](C)(CC(C)C)NC(=O)[C@@H](NC(=O)C(C)(C)NC(=O)[C@H](Cc1ccc(O)cc1)NC(=O)[C@H](CC(=O)O)NC(=O)[C@H](CO)NC(=O)[C@@H](NC(=O)[C@](C)(Cc1ccccc1F)NC(=O)[C@@H](NC(=O)CNC(=O)[C@H](CCC(=O)O)NC(=O)C(C)(C)NC(=O)[C@@H](N)Cc1ccc(O)cc1)[C@@H](C)O)[C@@H](C)O)[C@@H](C)CC)[C@@H](C)CC)C(=O)N[C@@H](CCCCNC(=O)COCCOCCNC(=O)COCCOCCNC(=O)CC[C@H](NC(=O)CCCCCCCCCCCCC(=O)O)C(=O)O)C(=O)NCC(=O)NCC(=O)N1CCC[C@H]1C(=O)N[C@@H](CO)C(=O)N[C@@H](CO)C(=O)NCC(=O)N[C@@H](C)C(=O)N1CCC[C@H]1C(=O)N1CCC[C@H]1C(=O)N1CCC[C@H]1C(=O)N[C@@H](CO)C(N)=O [Example 231] |  |  |  |  |  |  |  | 2.46 nM | 85.4% | 0.0184 nM | > 9950 nM | > 9950 nM | 109% | 1.22 nM |  |  |  |  |  |  |
| CC[C@H](C)[C@H](NC(=O)[C@H](CC(C)C)NC(=O)[C@](C)(Cc1ccc(O)cc1)NC(=O)[C@@H](CCC(=O)O)NC(=O)[C@@H](NC(=O)[C@H](Cc1ccccc1)NC(=O)CNC(=O)C(C)(C)NC(=O)[C@H](CCC(N)=O)NC(=O)[C@H](C)NC(=O)[C@H](CCCCNC(=O)COCCOCCNC(=O)COCCOCCNC(=O)CC[C@H](NC(=O)CCCCCCCCCCCCC(=O)O)C(=O)O)NC(=O)[C@H](CCCN)NC(=O)[C@H](CC(=O)O)NC(=O)[C@H](CC(C)C)NC(=O)[C@](C)(CC(C)C)NC(=O)[C@@H](NC(=O)[C@H](CO)NC(=O)[C@H](Cc1ccncc1)NC(=O)[C@H](CC(=O)O)NC(=O)[C@H](CO)NC(=O)[C@@H](NC(=O)[C@](C)(Cc1ccccc1F)NC(=O)[C@@H](NC(=O)CNC(=O)[C@H](CCC(=O)O)NC(=O)C(C)(C)NC(=O)[C@@H](N)Cc1ccc(O)cc1)[C@@H](C)O)[C@@H](C)O)[C@@H](C)CC)[C@@H](C)CC)C(=O)N[C@@H](CCC(=O)O)C(=O)NCC(=O)NCC(=O)N[C@@H](CCCCNC(=O)COCCOCCNC(=O)COCCOCCNC(=O)CC[C@H](NC(=O)CCCCCCCCCCCCC(=O)O)C(=O)O)C(=O)N[C@@H](CO)C(=O)N[C@@H](CO)C(=O)NCC(=O)N[C@@H](C)C(=O)N1CCC[C@H]1C(=O)N1CCC[C@H]1C(=O)N1CCC[C@H]1C(=O)N[C@@H](CO)C(N)=O [Example 103] |  |  |  |  |  |  |  |  | 94.2% | 0.0305 nM | > 9950 nM | > 9950 nM | 96.9% | 2.1 nM | 92.8% |  |  |  |  |  |
| CC[C@H](C)[C@H](NC(=O)[C@H](CC(C)C)NC(=O)[C@](C)(Cc1ccc(O)cc1)NC(=O)[C@@H](CCC(=O)O)NC(=O)[C@@H](NC(=O)[C@H](Cc1ccccc1)NC(=O)[C@H](CCCCNC(=O)COCCOCCNC(=O)COCCOCCNC(=O)CC[C@H](NC(=O)CCCCCCCCCOc1ccc(C(=O)O)cc1)C(=O)O)NC(=O)C(C)(C)NC(=O)[C@H](CCC(N)=O)NC(=O)[C@H](C)NC(=O)[C@H](CCCCNC(=O)COCCOCCNC(=O)COCCOCCNC(=O)CC[C@H](NC(=O)CCCCCCCCCOc1ccc(C(=O)O)cc1)C(=O)O)NC(=O)[C@H](CCCN)NC(=O)[C@H](CC(=O)O)NC(=O)[C@H](CC(C)C)NC(=O)[C@](C)(CC(C)C)NC(=O)[C@@H](NC(=O)[C@H](CO)NC(=O)[C@H](Cc1ccc2ccccc2c1)NC(=O)[C@H](CC(=O)O)NC(=O)[C@H](CO)NC(=O)[C@@H](NC(=O)[C@](C)(Cc1ccccc1F)NC(=O)[C@@H](NC(=O)CNC(=O)[C@H](CCC(=O)O)NC(=O)C(C)(C)NC(=O)[C@@H](N)Cc1ccc(O)cc1)[C@@H](C)O)[C@@H](C)O)[C@@H](C)CC)[C@@H](C)CC)C(=O)N[C@@H](CCC(=O)O)C(=O)NCC(=O)NCC(=O)N1CCC[C@H]1C(=O)N[C@@H](CO)C(=O)N[C@@H](CO)C(=O)NCC(=O)N[C@@H](C)C(=O)N1CCC[C@H]1C(=O)N1CCC[C@H]1C(=O)N1CCC[C@H]1C(=O)N[C@@H](CO)C(N)=O [Example 281] |  | 0.0187 nM | > 9950 nM |  |  |  | 0.252 nM |  |  |  |  |  |  |  |  | 97.9% | 110% | 1.87 nM | > 9950 nM | 91.7% |
